Each compound was assayed against recombinant Human Phosphodiesterase B2 (PDE4B2) (Homo sapiens, UniProt Q07343) (assay: Human Phosphodiesterase B2 Alpha Screen Assay). Conditions: recombinant human PDE4B2, cAMP substrate, 60 min at room temperature.
Assay type: biochemical
Procedure: Human Phosphodiesterase B2 Alpha Screen Assay
The assay uses recombinant Human Phosphodiesterase B2 (PDE4B2) produced in house (PrAZL0133), stored at −20° C. The substrate uses cAMP, part of the Alpha Screen cAMP kit (Perkin Elmer, Cat #6760625M), stored at 4° C. The Alpha Screen kit also includes biotinylated cAMP, acceptor and donor beads.
The assay additions were as follows: Test compounds and controls were added to white 384-well flat-bottom plates (Greiner, Cat #781075), 0.2 μl in 100% DMSO, followed by 10 μl PDE4B2 in reaction buffer. The reaction buffer constitution was: 50 mM Tris (pH 7.5), 8.3 mM MgCl2, 1.7 mM EGTA and 0.01% (w/v) Brij®35. The enzyme and the compounds were incubated at room temperature for 15 minutes. Then 10 μl cAMP in reaction buffer was added. The assay was stopped after 60 minutes incubation at room temperature by adding 10 μl acceptor beads in detection buffer with 40 mM EDTA. The detection buffer constitution was: 5 mM Tris (pH 7.5), 0.1% (w/v) BSA and 0.1% (v/v) Tween 20. This addition followed by an addition of 10 μl donor beads in detection buffer, with biotinylated cAMP. The plates were then incubated, dark at room temperature, for 5 hours followed by measurement on a Fusion™-α analyser. IC50 values (presented in Table 1) were determined using Xlfit curve fitting using model 205.

Sequence of recombinant Human Phosphodiesterase B2 (PDE4B2) (Q07343 1-564 isoform Q07343-2): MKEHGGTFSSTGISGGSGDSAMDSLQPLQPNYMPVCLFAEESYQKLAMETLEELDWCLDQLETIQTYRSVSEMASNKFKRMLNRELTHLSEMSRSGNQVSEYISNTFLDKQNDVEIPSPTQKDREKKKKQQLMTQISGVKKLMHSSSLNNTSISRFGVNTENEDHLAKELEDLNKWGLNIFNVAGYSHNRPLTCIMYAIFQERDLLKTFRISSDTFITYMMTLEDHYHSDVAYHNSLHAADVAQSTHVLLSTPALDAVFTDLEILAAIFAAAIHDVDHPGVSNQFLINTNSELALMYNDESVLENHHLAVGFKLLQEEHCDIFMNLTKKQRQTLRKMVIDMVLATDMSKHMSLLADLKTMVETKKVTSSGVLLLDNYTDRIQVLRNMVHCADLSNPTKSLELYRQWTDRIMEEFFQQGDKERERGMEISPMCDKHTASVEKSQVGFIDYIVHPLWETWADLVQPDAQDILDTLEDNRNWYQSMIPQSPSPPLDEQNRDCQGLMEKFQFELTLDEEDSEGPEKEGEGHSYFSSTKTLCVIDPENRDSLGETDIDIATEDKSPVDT

Row | SMILES | IC50
1 | CCc1nn(C2CCCC2)c2c1C(=O)NCC(c1ccccc1)=N2 [Example 1, 1-Cyclopentyl-3-ethyl-7-phenyl-5,6-dihydropyrazolo[3,4-e][1,4]diazepin-4(1H)-one] | 0.33 nM
2 | CCc1nn(C2CCCC2)c2c1C(=O)NCC(c1ccc(OC)cc1)=N2 [Example 2, 1-cyclopentyl-3-ethyl-7-(4-methoxyphenyl)-5,6-dihydropyrazolo[3,4-e][1,4]diazepin-4(1H)-one] | 0.98 nM
3 | CCc1nn(-c2ccc(F)cc2)c2c1C(=O)NCC(c1ccccc1)=N2 [Example 3, 3-ethyl-1-(4-fluorophenyl)-7-phenyl-5,6-dihydropyrazolo[3,4-e][1,4]diazepin-4(1H)-one] | 6.1 nM
4 | CCc1nn(C2CCCC2)c2c1C(=O)NCC(c1ccccc1OC)=N2 [Example 10, 1-Cyclopentyl-3-ethyl-7-(2-methoxyphenyl)-5,6-dihydropyrazolo[3,4-e][1,4]diazepin-4(1H)-one] | 0.91 nM
5 | CCc1nn(C2CCCC2)c2c1C(=O)NCC(c1cc(OC)ccc1OC)=N2 [Example 14, 1-Cyclopentyl-7-(2,5-dimethoxyphenyl)-3-ethyl-5,6-dihydropyrazolo[3,4-e][1,4]diazepin-4(1H)-one] | 0.5 nM
6 | CCc1nn(C2CCCC2)c2c1C(=O)NCC(c1ccco1)=N2 [Example 17, 1-Cyclopentyl-3-ethyl-7-(2-furyl)-5,6-dihydropyrazolo[3,4-e][1,4]diazepin-4(1H)-one] | 2.16 nM
7 | CCc1nn(C2CCCC2)c2c1C(=O)NCC(c1cccc(OC)c1)=N2 [Example 19, 1-Cyclopentyl-3-ethyl-7-(3-methoxyphenyl)-5,6-dihydropyrazolo[3,4-e][1,4]diazepin-4(1H)-one] | 0.55 nM
8 | CCc1nn(C2CCCC2)c2c1C(=O)NCC(CCC(=O)OC)=N2 [Example 20, Methyl 3-(1-cyclopentyl-3-ethyl-4-oxo-1,4,5,6-tetrahydropyrazolo[3,4-e][1,4]diazepin-7-yl)propanoate] | 28.7 nM
9 | CCc1nn(C2CCCC2)c2c1C(=O)NCC(c1ccc(F)cc1)=N2 [Example 21, 1-Cyclopentyl-3-ethyl-7-(4-fluorophenyl)-5,6-dihydropyrazolo[3,4-e][1,4]diazepin-4(1H)-one] | 1.05 nM
10 | CCc1nn(C2CCCC2)c2c1C(=O)NCC(c1ccc(C#N)cc1)=N2 [Example 23, 4-(1-Cyclopentyl-3-ethyl-4-oxo-1,4,5,6-tetrahydropyrazolo[3,4-e][1,4]diazepin-7-yl)benzonitrile] | 1.21 nM
11 | CCc1nn(C2CCCC2)c2c1C(=O)NCC(c1ccc(O)c(C(=O)O)c1)=N2 [Example 27, 5-(1-Cyclopentyl-3-ethyl-4-oxo-1,4,5,6-tetrahydropyrazolo[3,4-e][1,4]diazepin-7-yl)-2-hydroxybenzoic acid] | 0.52 nM
12 | CCc1nn(C2CCCC2)c2c1C(=O)NCC(c1ccccc1)N2 (stereo not drawn) [Example 30, 1-Cyclopentyl-3-ethyl-7-phenyl-5,6,7,8-tetrahydropyrazolo[3,4-e][1,4]diazepin-4(1H)-one] | 158 nM
13 | CSc1nn(-c2ccccc2)c2c1C(=O)NCC(c1ccccc1)=N2 [Example 31, 3-(Methylthio)-1,7-diphenyl-5,6-dihydropyrazolo[3,4-e][1,4]diazepin-4(1H)-one] | 426 nM
14 | CCc1nn(C2CC[S+]([O-])CC2)c2c1C(=O)NCC(c1ccccc1)=N2 (stereo not drawn) [Example 34, 3-Ethyl-1-(1-oxidotetrahydro-2H-thiopyran-4-yl)-7-phenyl-5,6-dihydropyrazolo[3,4-e][1,4]diazepin-4(1H)-one] | 99.1 nM
15 | CCc1nn(C2CCS(=O)(=O)CC2)c2c1C(=O)NCC(c1ccccc1)=N2 [Example 35, 1-(1,1-Dioxidotetrahydro-2H-thiopyran-4-yl)-3-ethyl-7-phenyl-5,6-dihydropyrazolo[3,4-e][1,4]diazepin-4(1H)-one] | 40.3 nM
16 | Cc1nn(C2CCCC2)c2c1C(=O)NCC(c1ccccc1)=N2 [Example 36, 1-Cyclopentyl-3-methyl-7-phenyl-5,6-dihydropyrazolo[3,4-e][1,4]diazepin-4(1H)-one] | 9.49 nM

More lines, in order of falling IC50, values ahead:

Row | IC50 | SMILES
17 | 4480 nM | CCc1nn(C2CCCC2)c2c1C(=O)NCC(CCC(=O)NCCN(C)C)=N2 [Example 29, 3-(1-Cyclopentyl-3-ethyl-4-oxo-1,4,5,6-tetrahydropyrazolo[3,4-e][1,4]diazepin-7-yl)-N-[2-(dimethylamino)ethyl]propanamide]
18 | 385 nM | CCc1nn(C2CCCC2)c2c1C(=O)NC(c1ccccc1)C(C)=N2 (stereo not drawn) [Example 25, 1-Cyclopentyl-3-ethyl-7-methyl-6-phenyl-5,6-dihydropyrazolo[3,4-e][1,4]diazepin-4(1H)-one]
19 | 103 nM | CCc1nn(C2CCCC2)c2c1C(=O)N(C)CC(c1ccccc1)=N2 [Example 26, 1-Cyclopentyl-3-ethyl-5-methyl-7-phenyl-5,6-dihydropyrazolo[3,4-e][1,4]diazepin-4(1H)-one]
20 | 65.3 nM | CCc1nn(C2CCCC2)c2c1C(=O)NCC(CCC(=O)O)=N2 [Example 28, 3-(1-Cyclopentyl-3-ethyl-4-oxo-1,4,5,6-tetrahydropyrazolo[3,4-e][1,4]diazepin-7-yl)propanoic acid]
21 | 43 nM | CCc1nn(-c2ccc(S(C)(=O)=O)cc2)c2c1C(=O)NCC(c1ccccc1)=N2 [Example 5, 3-ethyl-1-[4-(methylsulfonyl)phenyl]-7-phenyl-5,6-dihydropyrazolo[3,4-e][1,4]diazepin-4(1H)-one]
22 | 11 nM | CCc1nn(-c2ccccc2)c2c1C(=O)NCC(c1ccccc1)=N2 [Example 6, 3-Ethyl-1,7-diphenyl-5,6-dihydropyrazolo[3,4-e][1,4]diazepin-4(1H)-one]
23 | 5.8 nM | CCc1nn(C2CCS(=O)(=O)C2)c2c1C(=O)NCC(c1ccccc1)=N2 (stereo not drawn) [Example 32, 1-(1,1-Dioxidotetrahydrothien-3-yl)-3-ethyl-7-phenyl-5,6-dihydropyrazolo[3,4-e][1,4]diazepin-4(1H)-one]
24 | 4.8 nM | CCc1nn(-c2cccc([N+](=O)[O-])c2)c2c1C(=O)NCC(c1ccccc1)=N2 [Example 4, 3-ethyl-1-(3-nitrophenyl)-7-phenyl-5,6-dihydropyrazolo[3,4-e][1,4]diazepin-4(1H)-one]
25 | 4.16 nM | CCc1nn(C2CCCC2)c2c1C(=O)NCC(c1ccc(OC(F)(F)F)cc1)=N2 [Example 22, 1-Cyclopentyl-3-ethyl-7-[4-(trifluoromethoxy)phenyl]-5,6-dihydropyrazolo[3,4-e][1,4]diazepin-4(1H)-one]
26 | 3.92 nM | CCc1nn(C2CCCC2)c2c1C(=O)NCC(c1ccc(S(C)(=O)=O)cc1)=N2 [Example 24, 1-Cyclopentyl-3-ethyl-7-[4-(methylsulfonyl)phenyl]-5,6-dihydropyrazolo[3,4-e][1,4]diazepin-4(1H)-one]
27 | 3.9 nM | CCc1nn(C2CCSCC2)c2c1C(=O)NCC(c1ccccc1)=N2 [Example 33, 3-Ethyl-7-phenyl-1-tetrahydro-2H-thiopyran-4-yl-5,6-dihydropyrazolo[3,4-e][1,4]diazepin-4(1H)-one]
28 | 1.47 nM | CCc1nn(C2CCCC2)c2c1C(=O)NCC(c1ccc(OC)c(OC)c1)=N2 [Example 7, 1-Cyclopentyl-7-(3,4-dimethoxyphenyl)-3-ethyl-5,6-dihydropyrazolo[3,4-e][1,4]diazepin-4(1H)-one]
29 | 0.9 nM | CCc1nn(C2CCCC2)c2c1C(=O)NCC(c1ccc(OCc3ccccc3)cc1)=N2 [Example 15, 7-[4-(Benzyloxy)phenyl]-1-cyclopentyl-3-ethyl-5,6-dihydropyrazolo[3,4-e][1,4]diazepin-4(1H)-one]
30 | 0.84 nM | CCc1nn(C2CCCC2)c2c1C(=O)NCC(c1ccc(Br)cc1)=N2 [Example 8, 7-(4-Bromophenyl)-1-cyclopentyl-3-ethyl-5,6-dihydropyrazolo[3,4-e][1,4]diazepin-4(1H)-one]
31 | 0.73 nM | CCc1nn(C2CCCC2)c2c1C(=O)NCC(c1ccc(F)c(F)c1)=N2 [Example 13, 7-(3,4-Difluorophenyl)-1-cyclopentyl-3-ethyl-5,6-dihydropyrazolo[3,4-e][1,4]diazepin-4(1H)-one]
32 | 0.61 nM | CCc1nn(C2CCCC2)c2c1C(=O)NCC(c1ccc(C)cc1)=N2 [Example 9, 1-Cyclopentyl-3-ethyl-7-(4-methylphenyl)-5,6-dihydropyrazolo[3,4-e][1,4]diazepin-4(1H)-one]
33 | 0.59 nM | CCc1nn(C2CCCC2)c2c1C(=O)NCC(c1ccc(O)c(C(=O)OC)c1)=N2 [Example 11, Methyl 5-(1-cyclopentyl-3-ethyl-4-oxo-1,4,5,6-tetrahydropyrazolo[3,4-e][1,4]diazepin-7-yl)-2-hydroxybenzoate]
34 | 0.57 nM | CCc1nn(C2CCCC2)c2c1C(=O)NCC(c1ccc(Cl)cc1)=N2 [Example 12, 7-(4-Chlorophenyl)-1-cyclopentyl-3-ethyl-5,6-dihydropyrazolo[3,4-e][1,4]diazepin-4(1H)-one]
35 | 0.53 nM | CCc1nn(C2CCCC2)c2c1C(=O)NCC(C(C)(C)C)=N2 [Example 18, 7-tert-Butyl-1-cyclopentyl-3-ethyl-5,6-dihydropyrazolo[3,4-e][1,4]diazepin-4(1H)-one]
36 | 0.43 nM | CCc1nn(C2CCCC2)c2c1C(=O)NCC(c1ccc3c(c1)OCCCO3)=N2 [Example 16, 1-Cyclopentyl-7-(3,4-dihydro-2H-1,5-benzodioxepin-7-yl)-3-ethyl-5,6-dihydropyrazolo[3,4-e][1,4]diazepin-4(1H)-one]

Source: US20090054413A1, “Novel 5,6-Dihydropyrazolo[3,4-E] [L,4]Diazepin-4 (IH) -One Derivatives for the Treatment of Asthma and Chronic Obstructive Pulmonary Disease” (AstraZeneca AB, priority 2005, published 2009)
